Source: publication PMC11157767 (Molecular Cancer, 2024)

Tested on: TFG-MET allograft tumors
Assay: RNA-sequencing, differential expression and GSEA of TFG-MET allograft tumors
Format: in vivo, mouse
Conditions: CAP v Veh
Description: Error bars display standard error of mean, statistical significance was determined using t-test analysis. (****;p<0.0001, ***;p<0.001, **;p<0.01, *;p<0.05). […] Each dot represents an individual replicate. Error bars display standard error of the mean.
Each dot represents one gene.

CNC(=O)c1ccc(-c2cnc3ncc(Cc4ccc5ncccc5c4)n3n2)cc1F [Capmatinib]
ES (GOMF_3_5_DNA_HELICASE_ACTIVITY): -0.6834
NES (GOMF_3_5_DNA_HELICASE_ACTIVITY, padj 0.00671103): -1.906
ES (GOMF_ACTIVATING_TRANSCRIPTION_FACTOR_BINDING): -0.4071
NES (GOMF_ACTIVATING_TRANSCRIPTION_FACTOR_BINDING, padj 0.0419799): -1.5828
ES (GOMF_ALPHA_ACTININ_BINDING): -0.5133
NES (GOMF_ALPHA_ACTININ_BINDING, padj 0.0520078): -1.603
ES (GOMF_AMYLOID_BETA_BINDING): 0.3131
NES (GOMF_AMYLOID_BETA_BINDING, padj 0.0419799): 1.527
ES (GOMF_ANTIOXIDANT_ACTIVITY): 0.3898
NES (GOMF_ANTIOXIDANT_ACTIVITY, padj 0.0072907): 1.809
ES (GOMF_ATPASE_COUPLED_ION_TRANSMEMBRANE_TRANSPORTER_ACTIVITY): 0.474
NES (GOMF_ATPASE_COUPLED_ION_TRANSMEMBRANE_TRANSPORTER_ACTIVITY, padj 0.00463): 2.003
ES (GOMF_BETA_2_MICROGLOBULIN_BINDING): 0.5632
NES (GOMF_BETA_2_MICROGLOBULIN_BINDING, padj 0.0448774): 1.801
ES (GOMF_CALCIUM_DEPENDENT_PROTEIN_BINDING): 0.337
NES (GOMF_CALCIUM_DEPENDENT_PROTEIN_BINDING, padj 0.0607303): 1.56
ES (GOMF_CARBOHYDRATE_BINDING): 0.2512
NES (GOMF_CARBOHYDRATE_BINDING, padj 0.0202682): 1.428
ES (GOMF_CARBOXYLIC_ESTER_HYDROLASE_ACTIVITY): 0.3196
NES (GOMF_CARBOXYLIC_ESTER_HYDROLASE_ACTIVITY, padj 0.00853155): 1.6126
ES (GOMF_CATALYTIC_ACTIVITY_ACTING_ON_A_TRNA): -0.5808
NES (GOMF_CATALYTIC_ACTIVITY_ACTING_ON_A_TRNA, padj 7.15005e-11): -2.431
ES (GOMF_CATALYTIC_ACTIVITY_ACTING_ON_DNA): -0.5359
NES (GOMF_CATALYTIC_ACTIVITY_ACTING_ON_DNA, padj 5.51748e-13): -2.374
ES (GOMF_CATION_CATION_ANTIPORTER_ACTIVITY): 0.4863
NES (GOMF_CATION_CATION_ANTIPORTER_ACTIVITY, padj 0.0546567): 1.7655
ES (GOMF_CATION_TRANSMEMBRANE_TRANSPORTER_ACTIVITY): 0.1933
NES (GOMF_CATION_TRANSMEMBRANE_TRANSPORTER_ACTIVITY, padj 0.0600708): 1.207
ES (GOMF_COA_HYDROLASE_ACTIVITY): 0.52
NES (GOMF_COA_HYDROLASE_ACTIVITY, padj 0.0696276): 1.759
ES (GOMF_CORE_PROMOTER_SEQUENCE_SPECIFIC_DNA_BINDING): -0.4562
NES (GOMF_CORE_PROMOTER_SEQUENCE_SPECIFIC_DNA_BINDING, padj 0.072132): -1.575
ES (GOMF_CYTOKINE_BINDING): 0.2766
NES (GOMF_CYTOKINE_BINDING, padj 0.0484841): 1.402
ES (GOMF_CYTOKINE_RECEPTOR_ACTIVITY): 0.3569
NES (GOMF_CYTOKINE_RECEPTOR_ACTIVITY, padj 0.00978552): 1.74
ES (GOMF_DELAYED_RECTIFIER_POTASSIUM_CHANNEL_ACTIVITY): 0.4424
NES (GOMF_DELAYED_RECTIFIER_POTASSIUM_CHANNEL_ACTIVITY, padj 0.0600708): 1.691
ES (GOMF_DEMETHYLASE_ACTIVITY): -0.5386
NES (GOMF_DEMETHYLASE_ACTIVITY, padj 0.0072907): -1.838
ES (GOMF_DNA_BINDING_TRANSCRIPTION_ACTIVATOR_ACTIVITY): -0.3206
NES (GOMF_DNA_BINDING_TRANSCRIPTION_ACTIVATOR_ACTIVITY, padj 0.00368803): -1.494
ES (GOMF_DNA_BINDING_TRANSCRIPTION_REPRESSOR_ACTIVITY): -0.3134
NES (GOMF_DNA_BINDING_TRANSCRIPTION_REPRESSOR_ACTIVITY, padj 0.0381242): -1.423
ES (GOMF_DNA_HELICASE_ACTIVITY): -0.6746
NES (GOMF_DNA_HELICASE_ACTIVITY, padj 6.80206e-12): -2.633
ES (GOMF_DNA_POLYMERASE_ACTIVITY): -0.499
NES (GOMF_DNA_POLYMERASE_ACTIVITY, padj 0.057276): -1.624
ES (GOMF_DNA_POLYMERASE_BINDING): -0.6079
NES (GOMF_DNA_POLYMERASE_BINDING, padj 0.0319688): -1.763
ES (GOMF_DOUBLE_STRANDED_RNA_BINDING): -0.4239
NES (GOMF_DOUBLE_STRANDED_RNA_BINDING, padj 0.0120781): -1.66
ES (GOMF_ENDONUCLEASE_ACTIVITY): -0.4125
NES (GOMF_ENDONUCLEASE_ACTIVITY, padj 0.00509455): -1.716
ES (GOMF_ENDONUCLEASE_ACTIVITY_ACTIVE_WITH_EITHER_RIBO_OR_DEOXYRIBONUCLEIC_ACIDS_AND_PRODUCING_5_PHOSPHOMONOESTERS): -0.5195
NES (GOMF_ENDONUCLEASE_ACTIVITY_ACTIVE_WITH_EITHER_RIBO_OR_DEOXYRIBONUCLEIC_ACIDS_AND_PRODUCING_5_PHOSPHOMONOESTERS, padj 0.00950889): -1.794
ES (GOMF_ENDOPEPTIDASE_REGULATOR_ACTIVITY): 0.2991
NES (GOMF_ENDOPEPTIDASE_REGULATOR_ACTIVITY, padj 0.0132396): 1.521
ES (GOMF_ENDORIBONUCLEASE_ACTIVITY): -0.4748
NES (GOMF_ENDORIBONUCLEASE_ACTIVITY, padj 0.00565255): -1.786
ES (GOMF_ENDORIBONUCLEASE_ACTIVITY_PRODUCING_5_PHOSPHOMONOESTERS): -0.5711
NES (GOMF_ENDORIBONUCLEASE_ACTIVITY_PRODUCING_5_PHOSPHOMONOESTERS, padj 0.0162496): -1.81
ES (GOMF_FATTY_ACID_BINDING): 0.4525
NES (GOMF_FATTY_ACID_BINDING, padj 0.0492693): 1.741
NES (GOMF_FOUR_WAY_JUNCTION_DNA_BINDING, padj 0.0177962): -1.783
NES (GOMF_GLUTATHIONE_PEROXIDASE_ACTIVITY, padj 0.00790825): 2.092
ES (GOMF_GLYCOLIPID_BINDING): 0.506
NES (GOMF_GLYCOLIPID_BINDING, padj 0.0202682): 1.835
ES (GOMF_GUANYL_NUCLEOTIDE_BINDING): -0.2896
NES (GOMF_GUANYL_NUCLEOTIDE_BINDING, padj 0.0419799): -1.351
ES (GOMF_HEAT_SHOCK_PROTEIN_BINDING): -0.3614
NES (GOMF_HEAT_SHOCK_PROTEIN_BINDING, padj 0.0624118): -1.511
ES (GOMF_HEME_COPPER_TERMINAL_OXIDASE_ACTIVITY): 0.566
NES (GOMF_HEME_COPPER_TERMINAL_OXIDASE_ACTIVITY, padj 0.00343436): 2.052
ES (GOMF_HISTONE_DEACETYLASE_BINDING): -0.365
NES (GOMF_HISTONE_DEACETYLASE_BINDING, padj 0.0452435): -1.507
ES (GOMF_HYDROLASE_ACTIVITY_ACTING_ON_ACID_ANHYDRIDES): -0.3454
ES (GOMF_HYDROLASE_ACTIVITY_ACTING_ON_CARBON_NITROGEN_BUT_NOT_PEPTIDE_BONDS_IN_CYCLIC_AMIDINES): -0.5898
NES (GOMF_HYDROLASE_ACTIVITY_ACTING_ON_CARBON_NITROGEN_BUT_NOT_PEPTIDE_BONDS_IN_CYCLIC_AMIDINES, padj 0.00629559): -1.842
ES (GOMF_ION_TRANSMEMBRANE_TRANSPORTER_ACTIVITY): 0.1805
NES (GOMF_ION_TRANSMEMBRANE_TRANSPORTER_ACTIVITY, padj 0.0667134): 1.183
ES (GOMF_ISOMERASE_ACTIVITY): -0.3436
NES (GOMF_ISOMERASE_ACTIVITY, padj 0.0410059): -1.472
ES (GOMF_KINASE_BINDING): -0.2712
NES (GOMF_KINASE_BINDING, padj 0.019253): -1.314
ES (GOMF_KINASE_INHIBITOR_ACTIVITY): -0.4003
ES (GOMF_KINASE_REGULATOR_ACTIVITY): -0.3132
NES (GOMF_KINASE_REGULATOR_ACTIVITY, padj 0.0543588): -1.396
ES (GOMF_LIGASE_ACTIVITY_FORMING_CARBON_NITROGEN_BONDS): -0.4994
NES (GOMF_LIGASE_ACTIVITY_FORMING_CARBON_NITROGEN_BONDS, padj 0.0116225): -1.777
ES (GOMF_LYSINE_ACETYLATED_HISTONE_BINDING): -0.5519
NES (GOMF_LYSINE_ACETYLATED_HISTONE_BINDING, padj 0.0564834): -1.63
ES (GOMF_LYSOPHOSPHOLIPASE_ACTIVITY): 0.4699
NES (GOMF_LYSOPHOSPHOLIPASE_ACTIVITY, padj 0.0722653): 1.706
ES (GOMF_MAGNESIUM_ION_BINDING): -0.3426
NES (GOMF_MAGNESIUM_ION_BINDING, padj 0.0134631): -1.518
NES (GOMF_MAP_KINASE_KINASE_KINASE_ACTIVITY, padj 0.0759934): -1.58
ES (GOMF_METALLOENDOPEPTIDASE_ACTIVITY): -0.4444
NES (GOMF_METALLOENDOPEPTIDASE_ACTIVITY, padj 0.00334688): -1.785
ES (GOMF_METALLOPEPTIDASE_ACTIVITY): -0.3671
NES (GOMF_METALLOPEPTIDASE_ACTIVITY, padj 0.0120781): -1.581
ES (GOMF_METHYL_CPG_BINDING): -0.6439
